In patent US6458781B1, “Substituted diarylalkyl amides as calcium channel antagonists” (priority 1998, dated 2002):
Where a name gives a salt, the structure may show the parent alone. Read-outs that look alike come from different tables or passages of the source.

Tests used:
[1] = target: T1, N-type calcium channels in IMR-32 cells (Homo sapiens, UniProt Q00975); test: N-type Ca2+ channel blocking potency in IMR-32 cells using Indo-1; assay type: cell-based; conditions: for IC50: IMR-32 cells, estimated from two data points, read-out: IMR32 IC50 (estimated IC50 values based on two data points); for inhibition at 1 µM / inhibition at 10 µM: IMR-32, IMR-32 cells; for inhibition at 1 µM: read-out: IMR32 % blockage at 1 μM; for inhibition at 10 µM: read-out: IMR32 % blockage at 10 μM
T1 construct: host or cells: IMR-32 cells differentiated with dibutyryl cAMP and bromodeoxyuridine
T1 sequence (Q00975 whole entry): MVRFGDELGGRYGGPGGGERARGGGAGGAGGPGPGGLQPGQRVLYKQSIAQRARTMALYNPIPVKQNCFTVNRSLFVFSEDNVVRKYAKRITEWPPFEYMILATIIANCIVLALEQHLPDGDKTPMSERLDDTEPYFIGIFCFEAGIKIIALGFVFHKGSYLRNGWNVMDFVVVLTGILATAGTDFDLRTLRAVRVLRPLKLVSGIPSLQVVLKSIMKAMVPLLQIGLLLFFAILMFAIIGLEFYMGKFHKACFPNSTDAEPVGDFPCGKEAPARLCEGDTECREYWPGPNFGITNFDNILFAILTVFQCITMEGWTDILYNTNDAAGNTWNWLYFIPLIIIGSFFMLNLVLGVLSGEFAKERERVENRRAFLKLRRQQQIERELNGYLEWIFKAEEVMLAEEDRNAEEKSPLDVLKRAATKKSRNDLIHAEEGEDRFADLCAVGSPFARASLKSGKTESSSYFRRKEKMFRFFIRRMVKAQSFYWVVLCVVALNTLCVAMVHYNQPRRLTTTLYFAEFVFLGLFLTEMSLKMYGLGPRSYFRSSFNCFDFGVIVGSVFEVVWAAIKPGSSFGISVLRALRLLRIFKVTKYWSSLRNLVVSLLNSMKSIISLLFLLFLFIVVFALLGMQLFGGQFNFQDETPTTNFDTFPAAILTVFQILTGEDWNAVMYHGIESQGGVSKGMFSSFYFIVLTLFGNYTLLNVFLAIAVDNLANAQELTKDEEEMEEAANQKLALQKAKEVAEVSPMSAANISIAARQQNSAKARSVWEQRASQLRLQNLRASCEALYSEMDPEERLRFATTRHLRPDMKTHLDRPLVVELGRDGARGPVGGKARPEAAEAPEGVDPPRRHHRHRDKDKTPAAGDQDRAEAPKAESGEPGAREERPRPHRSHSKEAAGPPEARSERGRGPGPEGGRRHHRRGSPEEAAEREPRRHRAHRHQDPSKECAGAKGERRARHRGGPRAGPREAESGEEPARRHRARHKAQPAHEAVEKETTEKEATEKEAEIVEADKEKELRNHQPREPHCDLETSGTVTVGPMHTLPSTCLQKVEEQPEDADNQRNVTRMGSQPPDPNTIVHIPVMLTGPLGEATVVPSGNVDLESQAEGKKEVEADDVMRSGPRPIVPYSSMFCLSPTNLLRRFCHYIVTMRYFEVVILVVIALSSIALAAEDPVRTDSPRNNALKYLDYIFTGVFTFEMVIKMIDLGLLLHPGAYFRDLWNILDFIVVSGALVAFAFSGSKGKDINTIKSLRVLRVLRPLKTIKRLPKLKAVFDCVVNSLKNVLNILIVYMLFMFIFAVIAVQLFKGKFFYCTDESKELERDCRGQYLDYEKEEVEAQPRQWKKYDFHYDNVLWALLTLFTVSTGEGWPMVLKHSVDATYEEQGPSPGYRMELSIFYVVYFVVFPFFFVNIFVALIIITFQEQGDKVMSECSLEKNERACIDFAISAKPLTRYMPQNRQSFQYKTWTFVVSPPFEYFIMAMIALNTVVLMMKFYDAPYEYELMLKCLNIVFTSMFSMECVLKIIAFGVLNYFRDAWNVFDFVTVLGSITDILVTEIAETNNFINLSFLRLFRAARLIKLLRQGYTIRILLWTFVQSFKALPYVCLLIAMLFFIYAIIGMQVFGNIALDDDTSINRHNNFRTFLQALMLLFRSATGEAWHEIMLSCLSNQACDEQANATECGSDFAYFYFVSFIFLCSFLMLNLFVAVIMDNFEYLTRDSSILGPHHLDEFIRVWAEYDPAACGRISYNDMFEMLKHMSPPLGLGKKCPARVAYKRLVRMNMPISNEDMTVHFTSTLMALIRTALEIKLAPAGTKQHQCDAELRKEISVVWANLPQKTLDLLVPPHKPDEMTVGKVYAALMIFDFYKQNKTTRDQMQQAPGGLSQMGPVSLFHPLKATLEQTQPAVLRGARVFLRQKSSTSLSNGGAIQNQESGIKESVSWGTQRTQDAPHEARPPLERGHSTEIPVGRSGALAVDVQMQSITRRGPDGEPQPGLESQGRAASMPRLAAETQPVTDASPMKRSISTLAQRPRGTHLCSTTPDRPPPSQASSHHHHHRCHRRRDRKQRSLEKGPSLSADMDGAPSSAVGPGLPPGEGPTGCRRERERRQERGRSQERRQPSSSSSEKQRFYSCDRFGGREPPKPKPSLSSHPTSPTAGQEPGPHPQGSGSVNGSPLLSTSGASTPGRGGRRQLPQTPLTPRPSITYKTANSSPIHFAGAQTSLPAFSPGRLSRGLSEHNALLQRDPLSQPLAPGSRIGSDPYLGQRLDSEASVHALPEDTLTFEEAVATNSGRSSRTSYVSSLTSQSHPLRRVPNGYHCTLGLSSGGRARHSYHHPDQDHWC
T1 sequence (P54289 25-956 partner limits assumed): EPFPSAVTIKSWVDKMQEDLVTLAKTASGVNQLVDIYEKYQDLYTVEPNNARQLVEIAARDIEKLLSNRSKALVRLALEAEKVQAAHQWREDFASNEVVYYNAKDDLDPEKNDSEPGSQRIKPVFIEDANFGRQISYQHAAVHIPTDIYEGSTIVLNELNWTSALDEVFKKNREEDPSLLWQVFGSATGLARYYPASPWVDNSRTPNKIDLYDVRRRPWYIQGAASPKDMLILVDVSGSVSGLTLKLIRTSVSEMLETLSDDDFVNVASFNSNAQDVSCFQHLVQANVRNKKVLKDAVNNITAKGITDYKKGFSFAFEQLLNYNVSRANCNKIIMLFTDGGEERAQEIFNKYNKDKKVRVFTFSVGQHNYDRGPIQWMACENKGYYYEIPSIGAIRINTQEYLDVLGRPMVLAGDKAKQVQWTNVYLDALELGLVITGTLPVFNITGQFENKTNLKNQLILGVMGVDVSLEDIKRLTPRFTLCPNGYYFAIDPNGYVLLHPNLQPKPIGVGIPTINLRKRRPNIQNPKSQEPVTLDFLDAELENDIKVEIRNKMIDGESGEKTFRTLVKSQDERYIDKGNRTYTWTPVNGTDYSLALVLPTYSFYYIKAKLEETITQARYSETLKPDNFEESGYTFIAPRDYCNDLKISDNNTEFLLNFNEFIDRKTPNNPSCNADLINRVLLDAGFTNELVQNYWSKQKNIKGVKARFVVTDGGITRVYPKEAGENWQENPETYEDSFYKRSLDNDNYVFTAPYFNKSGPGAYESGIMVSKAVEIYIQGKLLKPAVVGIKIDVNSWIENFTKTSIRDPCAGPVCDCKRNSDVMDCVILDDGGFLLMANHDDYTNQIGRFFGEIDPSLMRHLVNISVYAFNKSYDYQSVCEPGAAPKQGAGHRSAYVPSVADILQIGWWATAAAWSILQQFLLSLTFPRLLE
T1 sequence (P54289 957-1103 partner limits assumed): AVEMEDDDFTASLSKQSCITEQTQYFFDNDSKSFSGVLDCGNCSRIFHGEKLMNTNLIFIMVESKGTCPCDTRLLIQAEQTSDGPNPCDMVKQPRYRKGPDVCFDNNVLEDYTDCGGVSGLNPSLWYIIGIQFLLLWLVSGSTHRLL
T1 sequence (Q02641 whole entry partner): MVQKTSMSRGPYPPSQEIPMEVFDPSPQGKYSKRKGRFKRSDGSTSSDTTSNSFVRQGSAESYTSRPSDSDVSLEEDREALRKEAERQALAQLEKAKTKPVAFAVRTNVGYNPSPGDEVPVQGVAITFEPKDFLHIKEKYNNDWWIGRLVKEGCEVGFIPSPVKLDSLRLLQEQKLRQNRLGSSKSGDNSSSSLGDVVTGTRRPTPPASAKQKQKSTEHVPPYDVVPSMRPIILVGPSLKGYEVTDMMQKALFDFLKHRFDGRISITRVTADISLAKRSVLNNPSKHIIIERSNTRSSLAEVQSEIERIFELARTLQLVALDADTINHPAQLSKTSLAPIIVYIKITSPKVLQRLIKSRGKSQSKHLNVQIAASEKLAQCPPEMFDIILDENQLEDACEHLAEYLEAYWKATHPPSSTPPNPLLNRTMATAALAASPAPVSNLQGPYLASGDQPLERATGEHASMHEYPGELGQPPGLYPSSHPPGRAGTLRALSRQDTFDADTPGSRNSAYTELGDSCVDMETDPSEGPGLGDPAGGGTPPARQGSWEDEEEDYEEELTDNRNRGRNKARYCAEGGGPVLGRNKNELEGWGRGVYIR
In short: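 Differentiated IMR-32 cells loaded with Indo-1 AM were preincubated with compound and 5 μM nitrendipine (L-type block) for 10 min at 30° C in HEPES/Tris pH 7.4 HBSS with 0.5% BSA. Cells were depolarized with KCl/CaCl2, and the 400/490 nm emission ratio rise over basal was measured. IC50 came from a four-parameter logistic fit.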

[2] = tested on: sound-induced tonic convulsions in DBA/2 mice; test: Audiogenic seizure model in DBA/2 mice; assay type: in vivo; conditions: Mus musculus, protected/tested, read-out: Number of Mice Protected From Tonic Convulsions (converted); for responders at 30 mg/kg: 30 mg/Kg IV; for responders at 10 mg/kg: 10 mg/Kg IV
Description: Audiogenic Seizure Model in DBA/2 Mice
A compound of the present invention was dissolved in water using 10% (weight/volume) Emulphor (GAF Corp., Wayne, N.J.) surfactant. Substances were administered by intravenous injection into the retro-orbital venous sinus of male mice (3-4 weeks old, Jackson Laboratories, Bar Harbour, Me.). All testing was preformed 15 minutes or 45 minutes after drug injection. Immediately before anticonvulsant testing, mice were placed upon a wire mesh, 4 inches square suspended from a steel rod. The square was slowly inverted through 180 degrees and mice observed for 30 seconds. Any mouse falling from the wire mesh was scored as ataxic.
Mice were placed into an enclosed acrylic plastic chamber (21 cm height, approximately 30 cm diameter) with a high-frequency speaker (4 cm diameter) in the center of the top lid. An audio signal generator (Protek model B-810) was used to produce a continuous sinusoidal tone that Was swept linearly in frequency between 8 kHz and 16 kHz once each 10 msec. The average sound pressure level (SPL) during stimulation was approximately 100 dB at the floor of the chamber. Mice were placed within the chamber and allowed to acclimatize for 1 minute. DBA/2 mice in the vehicle-treated group responded to the sound stimulus (applied until tonic extension occurred, or for a maximum of 60 sec) with a characteristic seizure sequence consisting of wild running followed by clonic seizures, and later by tonic extension, and finally by respiratory arrest and death in 80% or more of the mice. In vehicle-treated mice, the entire sequence of seizures to respiratory arrest lasts approximately 15-20 seconds.
The incidence of all the seizure phases in the drug-treated and vehicle-treated mice was recorded, and the occurrence of tonic seizures were used for calculating anticonvulsant ED50 values by probit analysis. Mice were used only once for testing at each time and dose point.

[3] = target: T2, L-type calcium channels in A10 cells (Rattus norvegicus, UniProt P22002); test: L-type Ca2+ channel blocking potency in A10 cells (FLIPR); assay type: cell-based; conditions: read-out: FLPA10 IC50
T2 construct: which endogenously expresses L-type calcium channels; host or cells: A10 rat embryonic thoracic aorta smooth muscle cells
Description: Measurement of L-type Ca^2+ Channel Blocking Potencies of Compounds in A10 Cells
Calcium flux through voltage-sensitive calcium channels was assessed by time-resolved monitoring of the fluorescence of pre-loaded calcium-sensitive dyes using FLIPR, a fluorescent image plate reader (Molecular Devices Co.). The A10 smooth muscle cell line derived from embryonic thoracic aorta of the DBIX rat (ATCC, CRL-1476) which endogenously expresses L-type calcium channels. The growth media for A10 cells was Ham's F12/DME high glucose (Irvine Scientific, 9052), supplemented with 20% fetal bovine serum (HyClone Labs, A-1115-L), and 1% each of L-glutamine and antibiotic-antimycotic (same source as above).
Cells were grown to confluency and replated on black-sided 96-well plates (Costar, 3603) for use in FLIPR. Two days after replating, growth media was removed and cells were loaded at 37° C. with 100 μL media containing 1 μM Oregon Green 488 Bapta-1 dye (Molecular Probes, O-6807) for 1 to 3 hours. The dye-containing media was then washed away with buffer (composition in mM: 1.25 CaCl2, 1.2 MgSO4, 11 glucose, 10 HEPES, 3.0 KCl, 137.0 NaCl, pH 7.4 with Tris base) in a Denley Cellwash (Labsystems, CW018B). The residual buffer volume was adjusted to 50 μL. A 5 minute drug-pre-incubation period at 35° C. was initiated when 50 μL of drug-containing buffer was pipetted into the cell plate with the 96-well pipettor integrated in the FLIPR apparatus. Fluorescent counts were monitored at 20 second intervals for 360 seconds, beginning 60 seconds prior to the delivery of drug-containing buffer. Following drug addition, 100 μL aliquots of a high K^+, depolarizing stimulus (composition in mM: 1.25 CaCl2, 1.2 MgSO4, 11 glucose, 10 HEPES, 140.0 KCl, pH 7.4 with Tris base) were added to each well, and fluorescence was monitored at 1 second intervals for 120 seconds beginning 10 seconds prior to the stimulus addition. CCD camera exposure time was 0.4 seconds, laser excitation was at 488 nm with a power of 0.2-0.5W, and a 510 to 560 nm bandpass interference filter preceded the camera.
Data was analyzed as a summation of fluorescent counts above basal during the stimulation period (an approximation of area under the curve), after normalizing the data with a spatial uniformity correction (for variations in laser illumination and cell density) and a negative control correction (zero calcium increase defined as the fluorescence reading in the presence of saturating pharmacologic block of the respective calcium channel). Drug effects were expressed as percent inhibition of fluorescence from an average of 8 K^+-stimulated wells which were pre-treated in the drug incubation period with buffer only. In the A10 cells, the pharmacologic agent used to define zero calcium influx was nitrendipine (RBI, N-144) at a final concentration of 1.0×10^−6 M.

IC50 [1] [nM]	IC50 [3] [nM]	melting point [°C]	inhibition at 1 µM [1] [%]	inhibition at 10 µM [1] [%]	Structure (SMILES)	responders at 30 mg/kg ([2]; 0.25 h, 15 min posttreatment) [%]	responders at 30 mg/kg ([2]; 0.75 h, 45 min posttreatment) [%]	responders at 10 mg/kg ([2]; 0.25 h, 15 min posttreatment) [%]	responders at 10 mg/kg ([2]; 0.75 h, 45 min posttreatment) [%]
	430		23	99	N[C@@H](Cc1ccccc1)C(=O)N1CCN(C(c2ccc(F)cc2)c2ccc(F)cc2)CC1 [Example 52, (S)-2-Amino-1-(4-[bis-(4-fluoro-phenyl)-methyl]-piperazin-1-yl}-3-phenyl-propan-1-one]	100	80		
	420	61 to 68	22	78	CC(C)C[C@H](N)C(=O)N1CCN(C(c2ccc(F)cc2)c2ccc(F)cc2)CC1 [Example 53, (S)-2-Amino-1-{4-[bis-(4-fluoro-phenyl)-methyl]-piperazin-1-yl}-4-methyl-pentan-1-one]				
	1300	45 to 58	25	99	CC(C)N[C@@H](Cc1ccccc1)C(=O)N1CCN(C(c2ccc(F)cc2)c2ccc(F)cc2)CC1 [Example 54, (S)-1-{4-[Bis-(4-fluoro-phenyl)-methyl]-piperazin-1-yl}-2-isopropylamino-3-phenyl-propan-1-one]				
	940	172 to 186		104	CC(C)CCN[C@@H](Cc1ccccc1)C(=O)N1CCN(C(c2ccc(F)cc2)c2ccc(F)cc2)CC1.Cl [Example 55, (S)-1-{4-[Bis-(4-fluoro-phenyl)-methyl]-piperazin-1-yl}-2-(3-methyl-butylamino)-3-phenyl-propan-1-one dihydrochloride]				
	> 3000	139 to 181	16	37	CC(C)CCN(CCC(C)C)[C@@H](Cc1ccccc1)C(=O)N1CCN(C(c2ccc(F)cc2)c2ccc(F)cc2)CC1.Cl [Example 56, (S)-1-{4-[Bis-(4-fluoro-phenyl)-methyl]-piperazin-1-yl}-2-[bis-(3-methyl-butyl)-amino]-3-phenyl-propan-1-one dihydrochloride]				
	> 3000	78 to 86	-5	2	CC(C)C[C@@H](C(=O)N1CCN(C(c2ccc(F)cc2)c2ccc(F)cc2)CC1)N(Cc1ccc(C(C)(C)C)cc1)Cc1ccc(C(C)(C)C)cc1 [Example 59, (S)-2-[Bis-(4-tert-butyl-benzyl)-amino]-1-{-4-[bis-(4-fluoro-phenyl)-methyl]-piperazin-1-yl}-4-methyl-pentan-1-one]				
	220	58 to 62	26	95	COc1cc(CN[C@@H](CC(C)C)C(=O)N2CCN(C(c3ccc(F)cc3)c3ccc(F)cc3)CC2)cc(OC)c1OC [Example 60, (S)-1-{4-[Bis-(4-fluoro-phenyl)-methyl]-piperazin-1-yl}-4-methyl-2-(3,4,5-trimethoxy-benzylamino)-pentan-1-one]				
	1700	60 to 64	42	102	O=C([C@H](Cc1ccccc1)NC1CCCCC1)N1CCN(C(c2ccc(F)cc2)c2ccc(F)cc2)CC1 [Example 61, (S)-1-{4-[Bis-(4-fluoro-phenyl)-methyl]-piperazin-1-yl}-2-cyclohexylamino-3-phenyl-propan-1-one]				

Further lines, the compound ahead of its results:

Structure (SMILES)	IC50 [1] [nM]	IC50 [3] [nM]	melting point [°C]	inhibition at 1 µM [1] [%]	inhibition at 10 µM [1] [%]	responders at 30 mg/kg ([2]; 0.25 h, 15 min posttreatment) [%]	responders at 30 mg/kg ([2]; 0.75 h, 45 min posttreatment) [%]	responders at 10 mg/kg ([2]; 0.25 h, 15 min posttreatment) [%]	responders at 10 mg/kg ([2]; 0.75 h, 45 min posttreatment) [%]
CC(C)C[C@H](NC1CCCCC1)C(=O)N1CCN(C(c2ccc(F)cc2)c2ccc(F)cc2)CC1 [Example 38, (S)-1-{4-[Bis-(4-fluoro-phenyl)-methyl]-piperazin-1-yl}-2-cyclohexylamino-4-methyl-pentan-1-one]	1200	610				80	20		
CC(C)C[C@@H](C(=O)N1CCN(C(c2ccc(F)cc2)c2ccc(F)cc2)CC1)N(C)C1CCCCC1 [Example 40, (S)-1-{4-[Bis-(4-fluoro-phenyl)-methyl]-piperazin-1-yl}-2-(cyclohexyl-methyl-amino)-4-methyl-pentan-1-one]	700	500				0	0		
CC(C)CCN(C)[C@@H](CC(C)C)C(=O)N1CCN(C(c2ccc(F)cc2)c2ccc(F)cc2)CC1 [Example 46, 1-{4-[Bis-(4-fluoro-phenyl)-methyl]-piperazin-1-yl}-4-methyl-2-[methyl-(3-methyl-butyl)-amino]-pentan-1-one dihydrochloride]	330	1800						80	20
CC(C)C[C@H](NC(=O)N1CCCCCC1)C(=O)N1CCN(C(c2ccccc2)c2ccccc2)CC1 [Example 48, (S)-Azepane-1-carboxylic acid [1-(4-benzhydryl-piperazine-1-carbonyl)-3-methyl-butyl]-amide]	1200	1700	66 to 74						
CC(C)C[C@H](NC(=O)OC(C)(C)C)C(=O)N1CCN(C(c2ccc(F)cc2)c2ccc(F)cc2)CC1 [Example 50, (S)-(1-{4-[Bis-(4-fluoro-phenyl)-methyl]-piperazine-1-carbonyl}-3-methyl-butyl)-carbamic acid tert-butyl ester]	550	950	59 to 66						
CC(C)(C)OC(=O)N[C@@H](Cc1ccccc1)C(=O)N1CCN(C(c2ccc(F)cc2)c2ccc(F)cc2)CC1 [Example 51, (S)-(1-Benzyl-2-{4-[bis-(4-fluoro-phenyl)-methyl]-piperazin-1-yl}-2-oxo-ethyl)-carbamic acid tert-butyl ester]	250	710	54 to 74						
CC(C)C[C@@H](C(=O)N1CCN(C(c2ccc(F)cc2)c2ccc(F)cc2)CC1)N(Cc1ccc(OC(C)(C)C)cc1)Cc1ccc(OC(C)(C)C)cc1 [Example 57, (S)-2-[Bis-(4-tert-butoxy-benzyl)-amino]-1-{4-[bis-(4-fluoro-phenyl)-methyl]-piperazin-1-yl}-4-methyl-pentan-1-one]		> 3000	62 to 67		7				
